For the molecule `COc1cccc2c1-c1cccc(C)c1C(NS(C)(=O)=O)(c1cccc(C(F)(F)F)c1)O2` (stereo not shown) [Example 1, N-[1-methoxy-7-methyl-6-[3-(trifluoromethyl)phenyl]-6H-dibenzo[b,d]pyran-6-yl]methanesulfonamide], the melting point (commonly the temperature, or range, at which the solid turns liquid) is 217 to 218 °C.

Values taken from patent publication US6436986B1, “Glucocorticoid receptor antagonists for treatment of diabetes” (Abbott Laboratories, priority 1999, dated 2002).
